Measurements as given in patent US20150291547A1, “SMALL MOLECULES FOR EXTENDING THE WELL BEING OF CELLS AND METHODS OF USE THEREOF” (NANYANG POLYTECHNIC, priority 2011, published 2015).

What was measured:
[1] = system: hTERT expression (hTERT promoter); assay: HepG2-phTERT-SEAP reporter assay (SEAP activity as measure of hTERT expression); assay type: cell-based, human; conditions: for increase in hTERT expression: 16 hours; for average increase in hTERT expression: 20 μg/ml, 16 hours incubation, HepG2-hTERT reporter cell line, n=5 (FIG. 1)
Procedure: NPL which consists of a total of 480 different pure natural product compounds.
(§1) “SEAP” stands for secreted alkaline phosphatase enzyme. SEAP was used as a reporter system to monitor the transcriptional activity of hTERT. Here, about 10,000 cells per well were grown in 96-well plates and incubated at 37° C. for 22 hours. Varying types and amounts of natural compounds were added and cells were incubated for another 16 hours. Culture media were collected and heated at 65° C. for 10 mins to inactivate heat labile phosphatases. An equal amount of SEAP buffer (2M diethanolamine, 1 mM MgCl2, and 20 mM L-homoarginine), was added to the media and p-nitrophenyl phosphate was added to a final concentration of 12 mM. Absorbance at 405 nm was taken, and the percentage change in absorbance was calculated.
An increase in SEAP activity detected via the utilization of a substrate, translates to an increase in hTERT expression.
Cell lines suitable for use in the assay were prepared from ATTC No. HB-8065 Hep G2 (Hepatocellular carcinoma, human). The Hep G2 cell line was isolated from a liver biopsy of a person with a well differentiated hepatocellular carcinoma. These cells are epithelial in morphology. These cells secrete a variety of major plasma proteins e.g., alpha-fetoprotein (alpha fetoprotein); albumin; alpha2 macroglobulin (alpha-2-macroglobulin); alpha1 antitrypsin (alpha-1-antitrypsin); transferrin; alpha1 antichymotrypsin; (alpha-1-antichymotrypsin); haptoglobin; ceruloplasmin; plasminogen; complement (C4); C3 activator; fibrinogen; alpha1 acid glycoprotein (alpha-1 acid glycoprotein); alpha2 HS glycoprotein (alpha-2-HS-glycoprotein); beta lipoprotein (beta-lipoprotein); retinol binding protein (retinol-binding protein). The cells are also responsive to stimulation with human growth hormone. HepG2 cells and its derivatives are commonly used as a model system for studies of liver metabolism and toxicity of xenobiotics, the detection of cytoprotective, anti (environmental and dietary) genotoxic and cogenotoxic agents, understanding hepatocarcinogenesis, and for drug targeting studies. HepG2 cells are also employed in trials with bio-artificial liver devices.
(§2) One of the plasmids contains the 5′ upstream hTERT promoter region followed by the reporter gene, the SEAP gene, while the other plasmid contains the CMV promoter region controlling the expression of the SEAP gene.
(§3) Each plasmid was then individually transfected into HepG2 cells and stable cells lines were established by selection on G418 (1 mg/ml). Stable clones of from each plasmid transfected cell line was established and each clone was propagated and preserved under liquid nitrogen for long term storage prior to use
(§4) The newly established HepG2-pTERT-SEAP and HepG2-pCMV-SEAP stable cell lines were then used for screening for inhibitors or activators of human telomerase expression.
An increase in SEAP activity indicates an increase in hTERT expression and a decrease in SEAP activity indicates a decrease in hTERT expression.
HepG2-phTERT-SEAP cells were grown for 22 hours in M199 medium supplemented with 10% FBS. The three compounds, 7E (P1), 8H(P1) and 11E(P2) (20 μg/ml) specified above were added and incubated for another 16 hours. After 16 hours, SEAP assay was conducted in accordance to the protocol described by Huang et al. (2003).

[2] = system: hTERT promoter relative to CMV promoter; assay: Specificity check: hTERT promoter relative to CMV promoter driven SEAP in HepG2 cells; assay type: cell-based, human; conditions: for Average phTERT/pCMV ratio: 20 μg/ml, 16 hours, ± SE, n = 3; for specificity in activating hTERT expression: judged from average phTERT/pCMV ratio
Procedure: as §1, §2, §3, §4
HepG2-pCMV-SEAP serves as a positive control to ensure that SEAP is always secreted by cells harbouring this plasmid. It also serves as a specificity control as any small molecules that stimulate or inhibit only telomerase expression identified using the HepG2-pTERT-SEAP cells screening should show little to no increase in SEAP activity.
HepG2-phTERT-SEAP cells were grown for 22 hours in M199 medium supplemented with 10% FBS. The three compounds (20 μg/ml) specified above were then added and incubated for another 16 hours. After 16 hours, SEAP assay was conducted in accordance to the protocol described by Huang et al. (2003). Concurrently, HepG2-pCMV-SEAP cells were also subjected to the compounds and results were also collected. The results obtained were as shown in Table 1 below which indicate the change in hTERT expression from n=3 independent experiments.

[3] = 1.25ug/ml, above untreated cells
[4] = 20 ug/ml, vs 1% DMSO control wells
[5] = 100 ug/ml, vs 1% DMSO control wells

Compound: O=c1cc(-c2ccc(O)c(O)c2)oc2cc(O[C@@H]3O[C@H](CO)[C@@H](O)[C@H](O)[C@H]3O)cc(O)c12 [7E, Plate 1, 2-(3,4-dihydroxyphenyl)-5-hydroxy-7-[3,4,5-trihydroxy-6-(hydroxymethyl)(2H-3,4,5,6-tetrahydropyran-2-yloxy)]chromen-4-one]
- increase in hTERT expression [1, 3]: 12.3%
- average increase in hTERT expression [1]: 29.42%
- increase in hTERT expression [1, 4]: 34.7%
- increase in hTERT expression [1, 5]: 167.0%
- Average phTERT/pCMV ratio [2]: 1.08 ± 0.04
- specificity in activating hTERT expression [2]: only mildly specific

Compound: COc1cc2ccc(=O)oc2c(O)c1OCC=C(C)C [8H, Plate 1, 8-hydroxy-6-methoxy-7-(3-methylbut-2-enyloxy) chromen-2-one]
- increase in hTERT expression [1, 3]: 8.1%
- average increase in hTERT expression [1]: 49.76%
- increase in hTERT expression [1, 4]: 39.5%
- increase in hTERT expression [1, 5]: 139.5%
- Average phTERT/pCMV ratio [2]: 2.16 ± 0.14
- specificity in activating hTERT expression [2]: highly specific

Compound: Cc1ccc(C(=O)Nc2ccc(S(=O)(=O)O)c3cc(S(=O)(=O)O)cc(S(=O)(=O)O)c23)cc1NC(=O)c1cccc(NC(=O)Nc2cccc(C(=O)Nc3cc(C(=O)Nc4ccc(S(=O)(=O)O)c5cc(S(=O)(=O)O)cc(S(=O)(=O)O)c45)ccc3C)c2)c1 [Suramin, reference compound]
- Average phTERT/pCMV ratio [2]: 1.16 ± 0.11

Compound: COc1cc2ccc(=O)oc2cc1O [11E, Plate 2, 7-hydroxy-6-methoxychromen-2-one]
- increase in hTERT expression [1, 3]: 4.3%
- average increase in hTERT expression [1]: 57.99%
- increase in hTERT expression [1, 4]: 54.2%
- increase in hTERT expression [1, 5]: 225.8%
- Average phTERT/pCMV ratio [2]: 2.01 ± 0.01
- specificity in activating hTERT expression [2]: highly specific
